# Measured values: PMC12612871, “Novel 1,3-Diazepines as Nontoxic Corrosion Inhibitors” (ACS Omega, 2025)
# Like-named read-outs stand apart in the source and are kept apart here.
# Experiments:
# [1] = test system: A549 human lung carcinoma cell line; assay: MTT cell viability assay, A549; assay type: cell-based; details: 0.01 to 100 μM, read-out: IC50 (μM) ± S.D A549
# Procedure: (§1) The MDA-MB-231 human breast adenocarcinoma cell line (ATCC HTB-26), A549 human lung carcinoma cell line (ATCC CCL-185), TOV-21G human ovarian adenocarcinoma cell line (ATCC CRL-11730), and WI-26VA4 human lung fibroblast cell line (ATCC CCL-95.1) were cultured in RPMI-1640 medium supplemented with 10% fetal bovine serum (FBS) and gentamicin (100 μg/mL). Cells were maintained at 37 °C in a humidified atmosphere containing 5% CO2.
# (§2) Cell viability was assessed using the MTT assay (3-[4,5-dimethylthiazol-2-yl]-2,5-diphenyl-tetrazolium bromide). Briefly, 100 μL of complete medium containing 1 × 10^4 cells was added to each well of a 96-well tissue culture plate. Cells were incubated at 37 °C in a humidified atmosphere with 5% CO2 for 24 h prior to treatment. Following medium removal, 100 μL of fresh medium containing the test compounds at concentrations ranging from 0.01 to 100 μM was added to each well, and cells were incubated for 48 h under the same conditions. All compounds were presolubilized in dimethyl sulfoxide (DMSO), and the final DMSO concentration in all treatments was maintained at ≤ 0.2% to avoid interference with cell viability.
# (§3) After treatment, the medium was replaced with 100 μL of MTT solution (0.5 mg/mL) per well, followed by a 3 h incubation. Formazan crystals were dissolved by adding 100 μL of DMSO to each well, and absorbance was measured at 550 nm using a microplate reader (SpectraMax M5e, Molecular Devices, Sunnyvale, CA, USA). The percentage of growth inhibition was calculated as [1-(Abs of treated/Abs of control)]×100. All experiments were conducted in triplicate, and results are expressed as mean IC50 values, which were determined using OriginPro 8.0 software (OriginLab Corporation, Northampton, MA, USA).
# [2] = test system: MDA-MB-231 human breast adenocarcinoma cell line; assay: MTT cell viability assay, MDA-MB-231; assay type: cell-based; details: 0.01 to 100 μM, read-out: IC50 (μM) ± S.D MDA-MB-231
# Procedure: as §1, §2, §3
# [3] = test system: TOV-21G human ovarian adenocarcinoma cell line; assay: MTT cell viability assay, TOV-21G; assay type: cell-based; details: 48 h, 0.01 to 100 μM, read-out: IC50 (μM) ± S.D TOV-21G
# Procedure: as §1, §2, §3
# [4] = Mass loss (gravimetric) corrosion inhibition test; details: 2 mmol L–1 inhibitor, 5% (v/v) DMSO in HCl 1 mol L–1, 4 h immersion, relative to solution without inhibitor
# Procedure: SAE 1020 steel plates, with a composition of C (0.18–0.23%), Mn (0.3–0.6%), P (0.03%), and S (0.05%), and dimensions of 2.5 × 2.5 × 0.13 cm, were polished sequentially using emery papers of increasing grit sizes (150, 220, 320, 400 and 600). After polishing, the plates were thoroughly rinsed with deionized (Milli-Q) water.
# A control solution was prepared by dissolving 5% (v/v) dimethyl sulfoxide in HCl 1 mol L^–1. Inhibitor-containing solutions were prepared by adding 2 mmol L^–1 of the inhibitor to 5% (v/v) dimethyl sulfoxide in HCl 1 mol L^–1 using deionized (Milli-Q) water. SAE 1020 steel plates were immersed in these solutions for a duration of 4 h.
# The gravimetric method was employed to evaluate corrosion resistance by weighing the steel plates before and after immersion in the aqueous HCl solution. The mass loss (w) was calculated as the difference between the average initial mass (m i) and final mass (m f) of each plate (eq ). This information was subsequently used to determine the inhibition efficiency (IE) according to eq , where w 0 and w represent the mass losses in the absence and presence of the inhibitor, respectively. All measurements were performed in triplicate to ensure accuracy and reliability, and the reported values correspond to the average of these three determinations. , 5 w=[…] 6 IE(%)=(w^0−w)/w^0.100
# [5] = test system: WI-26VA4 human lung fibroblast cell line; assay: MTT cell viability assay, WI-26VA4; assay type: cell-based; details: 0.01 to 100 μM, read-out: IC50 (μM) ± S.D WI-26VA4
# Procedure: as §1, §2, §3
Molecule,IC50 ([1]; 48 h),IC50 ([2]; 48 h),IC50 [3],"IC50 ([1]; Homo sapiens, A549, 48 h)","IC50 ([2]; Homo sapiens, MDA-MB-231, 48 h)","IC50 ([3]; Homo sapiens, TOV21G)",IE (%) corrosion inhibition efficiency by mass loss [4],IC50 ([5]; 48 h),"IC50 ([5]; Homo sapiens, WI26VA4, 48 h)"
"2-(nitromethylene)-1,3-diazepine [compound 10]",> 100 µM,> 100 µM,> 100 µM,,,,91 ± 0.7%,> 100 µM,
"N#CC(C#N)=C1NCCCCN1 [compound 11, 2-(1,3-Diazepan-2-ylidene)-malononitrile]",,,,> 100 µM,> 100 µM,> 100 µM,88 ± 0.9%,,> 100 µM
"COC(=O)C(C#N)=C1NCCCCN1 [compound 12, Methyl 2-cyano-2-(1,3-diazepan-2-ylidene)-acetate]",,,,> 100 µM,> 100 µM,> 100 µM,92 ± 0.6%,,> 100 µM

# Now from value to molecule, other results behind:
IC50 ([1]; 48 h),IC50 ([2]; 48 h),IC50 [3],"IC50 ([1]; Homo sapiens, A549, 48 h)","IC50 ([2]; Homo sapiens, MDA-MB-231, 48 h)","IC50 ([3]; Homo sapiens, TOV21G)",Molecule,IE (%) corrosion inhibition efficiency by mass loss [4],IC50 ([5]; 48 h),"IC50 ([5]; Homo sapiens, WI26VA4, 48 h)"
,,,> 100 µM,> 100 µM,> 100 µM,"CCOC(=O)C(C(=O)OCC)=C1NCCCCN1 [compound 13, Diethyl 2-(1,3-diazepan-2-ylidene)-malonate]",19 ± 5.4%,,> 100 µM
,,,,> 100 µM,> 100 µM,"N#CC(C(=O)c1ccccc1)=C1NCCCCN1 [compound 14, 2-(1,3-Diazepan-2-ylidene)-3-oxo-3-phenylpropanenitrile]",94 ± 2.5%,,> 100 µM
,,,0.67 ± 0.4 µM,2.6 ± 0.8 µM,8.3 ± 4 µM,"COc1cccc2c1C(=O)c1c(O)c3c(c(O)c1C2=O)C[C@@](O)(C(=O)CO)C[C@@H]3O[C@H]1C[C@H](N)[C@H](O)[C@H](C)O1 [doxorubicin, reference compound]",,,7 ± 2 µM
